Drawing on ChEMBL document CHEMBL1159352, “Reaction of irofulven with zinc and acid” (J Nat Prod, 2003), this text covers IC50 for 5 compounds.

In general, IC50 refers to the concentration that gives 50% inhibition. Read a low IC50 as greater potency in that assay.

This assay relates to HL-60. The experiment in a line: Cytotoxicity against human HL60 cells after 48 hrs by trypan blue exclusion assay. The assay is classed as functional, cell-based. To be noted: HL-60, 48 h.
On to `C=C1C(C)=Cc2c(O)c(C)c(CCO)c(C)c21`, for which the midpoint of inhibition, the IC50, lay at 130 µM.

Take `CC1=C(CO)c2c(C)c(CCO)c(C)c(O)c2C1`: half-maximal inhibition (IC50) required 120 µM.

Compound `CC1=C2C(=C[C@@](C)(CO)[C@@H]2O)C(=O)[C@](C)(O)C12CC2` [ILLUDIN] displayed an IC50 of 0.003 µM.

The compound `C=C1C(C)=Cc2c(O)c(C)c(CCOC(C)=O)c(C)c21` returned an IC50 of 110 µM.

`CC1=C(CO)c2c(C)c(CCO)c(C)c(O)c2C1O` (stereo not given): half-maximal inhibition (IC50) required 114 µM.
